The values that follow come from patent US9938268B2, “C-ring modified tricyclic benzonaphthiridinone protein kinase inhibitors and use thereof” (Merck Patent GmbH, priority 2008, dated 2018).

Chain of Aurora A (O14965 whole entry): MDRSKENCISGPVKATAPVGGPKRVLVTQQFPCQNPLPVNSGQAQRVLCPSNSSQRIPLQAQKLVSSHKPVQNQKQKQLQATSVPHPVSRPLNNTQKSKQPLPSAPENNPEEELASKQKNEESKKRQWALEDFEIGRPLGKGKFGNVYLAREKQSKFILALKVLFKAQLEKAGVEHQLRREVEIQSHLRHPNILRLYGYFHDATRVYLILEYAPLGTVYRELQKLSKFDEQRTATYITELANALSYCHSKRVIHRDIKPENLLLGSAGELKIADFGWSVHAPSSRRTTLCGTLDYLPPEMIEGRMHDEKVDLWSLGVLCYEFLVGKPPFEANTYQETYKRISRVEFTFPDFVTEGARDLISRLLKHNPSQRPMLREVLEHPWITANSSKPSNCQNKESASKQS

The first assay addresses Aurora A (Homo sapiens (Human), UniProt O14965). As to the kind of experiment: Aurora A kinase inhibition (IC50). The class given is biochemical.
Details: not given
The compound `O=C(Nc1ccc(Nc2ccnc3[nH]c(=O)c4c(c23)CCCC4)cc1)c1ccccc1` [Compound 5, N-[4-(6-Oxo-5,6,7,8,9,10-hexahydrobenzo[c][1,8]naphthyridin-1-ylamino)-phenyl]-benzamide] had an IC50 of 0.011 to 0.1 µM.
Same read-out and setting: the same measure for `O=C(Nc1ccc(Nc2ccnc3[nH]c(=O)c4c(c23)CCCC4)cc1)c1ccc(F)cc1C(F)(F)F` [Compound 6, 4-Fluoro-N-[4-(6-oxo-5,6,7,8,9,10-hexahydrobenzo[c][1,8]naphthyridin-1-ylamino)-phenyl]-2-trifluoromethyl-1-benzamide]: 0.001 to 0.01 µM.
`O=C(Nc1ccc(Nc2ccnc3[nH]c(=O)c4c(c23)CCCC4)cc1)c1cccc(F)c1F` [Compound 7, 2,3-Difluoro-N-[4-(6-oxo-5,6,7,8,9,10-hexahydrobenzo[c][1,8]naphthyridin-1-ylamino)-phenyl]-1-benzamide] gave a half-maximal inhibitory concentration (IC50) of 0.001 to 0.01 µM.
Still for that read-out and setting: the same measure for `O=C(Nc1ccc(Nc2ccnc3[nH]c(=O)c4c(c23)CCCC4)cc1)c1ccc(F)c(F)c1` [Compound 8, 3,4-Difluoro-N-[4-(6-oxo-5,6,7,8,9,10-hexahydrobenzo[c][1,8]naphthyridin-1-ylamino)-phenyl]-1-benzamide]: 0.001 to 0.01 µM; for `O=C(Nc1ccc(Nc2ccnc3[nH]c(=O)c4c(c23)CCCC4)cc1)c1cc(F)cc(F)c1` [Compound 9, 3,5-Difluoro-N-[4-(6-oxo-5,6,7,8,9,10-hexahydrobenzo[c][1,8]naphthyridin-1-ylamino)-phenyl]-1-benzamide]: 0.001 to 0.01 µM.
Still for that read-out and setting: the value for `O=C(Nc1ccc(Nc2ccnc3[nH]c(=O)c4c(c23)CCCC4)cc1)c1ccc(F)cc1` [Compound 10, 4-Fluoro-N-[4-(6-oxo-5,6,7,8,9,10-hexahydrobenzo[c][1,8]naphthyridin-1-ylamino)-phenyl]-1-benzamide] was 0.001 to 0.01 µM; that for `O=C(Nc1ccc(Nc2ccnc3[nH]c(=O)c4c(c23)CCCC4)cc1)c1cccc(C(F)(F)F)c1F` [Compound 11, 2-Fluoro-N-[4-(6-oxo-5,6,7,8,9,10-hexahydrobenzo[c][1,8]naphthyridin-1-ylamino)-phenyl]-3-trifluoromethyl-benzamide] was 0.001 to 0.01 µM; that for `O=C(Nc1ccc(Nc2ccnc3[nH]c(=O)c4c(c23)CCCC4)cc1)c1c(Cl)cccc1Cl` [Compound 13, 2,6-Dichloro-N-[4-(6-oxo-5,6,7,8,9,10-hexahydrobenzo[c][1,8]naphthyridin-1-ylamino)-phenyl]-1-benzamide] was 0.001 to 0.01 µM.
Same read-out and setting: the value for `O=C(Nc1ccc(Nc2ccnc3[nH]c(=O)c4c(c23)CCNC4)cc1)c1ccc(F)cc1` [Compound 25, 4-Fluoro-N-[4-(9-oxo-5,6,7,8,9,10-hexahydro-1,7,10-triaza-phenanthren-4-ylamino)-phenyl]-benzamide] was 0.101 to 1 µM; that for `O=C(Nc1ccc(Nc2ccnc3[nH]c(=O)c4c(c23)CCNC4)cc1)c1ccc(F)c(F)c1` [Compound 26, 3,4-Difluoro-N-[4-(9-oxo-5,6,7,8,9,10-hexahydro-1,7,10-triaza-phenanthren-4-ylamino)-phenyl]-benzamide] was 0.011 to 0.1 µM; that for `O=C(Nc1ccc(Nc2ccnc3[nH]c(=O)c4c(c23)CCNC4)cc1)c1ccccc1` [Compound 27, N-[4-(9-oxo-5,6,7,8,9,10-hexahydro-1,7,10-triaza-phenanthren-4-ylamino)-phenyl]-benzamide] was 0.101 to 1 µM.
`O=C(Nc1ccc(Nc2ccnc3[nH]c(=O)c4c(c23)CNCC4)cc1)c1ccccc1` [Compound 28, N-[4-(9-oxo-5,6,7,8,9,10-hexahydro-1,6,10-triaza-phenanthren-4-ylamino)-phenyl]-benzamide] gave an IC50 of 0.101 to 1 µM.
Still for that read-out and setting: the same measure for `O=C(Nc1ccc(Nc2ccnc3[nH]c(=O)c4c(c23)CCN(Cc2ccccc2)C4)cc1)c1ccccc1` [Compound 29, N-[4-(7-Benzyl-9-oxo-5,6,7,8,9,10-hexahydro-1,7,10-triaza-phenanthren-4-ylamino)-phenyl]-benzamide]: 0.101 to 1 µM; for `O=C(Nc1ccc(Nc2ccnc3[nH]c(=O)c4n[nH]cc4c23)cc1)c1ccccc1` [Compound 33, N-(4-(4-oxo-4,5-dihydro-2H-pyrazolo[3,4-c][1,8]naphthyridin-9-ylamino)phenyl)benzamide]: 0.011 to 0.1 µM.
The compound `O=C(Nc1ccc(Nc2ccnc3[nH]c(=O)c4n[nH]cc4c23)cc1)c1ccc(F)cc1C(F)(F)F` [Compound 34, 4-fluoro-N-(4-(4-oxo-4,5-dihydro-2H-pyrazolonaphthyridin-9-ylamino)phenyl)-2-(trifluoromethyl)benzamide] yielded a concentration for half-maximal inhibition (IC50) of 0.001 to 0.01 µM.
On to `O=C(Nc1ccc(Nc2ccnc3[nH]c(=O)c4ccoc4c23)cc1)c1ccccc1` [Compound 36, N-[4-(4-oxo-4,5-dihydro-furo[3,2-c][1,8]naphthyridin-9-ylamino)-phenyl]-benzamide], for which the IC50 is 0.011 to 0.1 µM.
In the case of `O=c1[nH]c2nccc(Nc3ccccc3)c2c2occc12` [Compound 37, 9-Phenylamino-5H-furo[3,2-c][1,8]naphthyridin-4-one], the IC50 lay in the range of 0.101 to 1 µM.
Same read-out and setting: the value for `COc1ccc(Nc2ccnc3[nH]c(=O)c4ccoc4c23)cc1` [Compound 38, 9-(4-Methoxy-phenylamino)-5H-furo[3,2-c][1,8]naphthyridin-4-one] was 0.101 to 1 µM; that for `O=c1[nH]c2nccc(Nc3ccc(Cl)cc3)c2c2occc12` [Compound 39, 9-(4-Chloro-phenylamino)-5H-furo[3,2-c][1,8]naphthyridin-4-one] was 0.101 to 1 µM; that for `COc1cccc(Nc2ccnc3[nH]c(=O)c4ccoc4c23)c1` [Compound 40, 9-(3-Methoxy-phenylamino)-5H-furo[3,2-c][1,8]naphthyridin-4-one] was 0.101 to 1 µM.
On the same count and under the same terms, the same measure for `Nc1ccc(Oc2ccnc3[nH]c(=O)c4c(c23)CCCC4)cc1` [Compound 46, 1-(4-Amino-phenoxy)-7,8,9,10-tetrahydro-5H-benzo[c][1,8]naphthyridin-6-one]: 0.101 to 1 µM.
On the same count and under the same terms, the value for `O=C(Nc1ccc(Oc2ccnc3[nH]c(=O)c4c(c23)CCCC4)cc1)c1cccn(-c2ccc(F)cc2)c1=O` [Compound 48, 1-(4-Fluoro-phenyl)-2-oxo-1,2-dihydro-pyridine-3-carboxylic acid [4-(6-oxo-5,6,7,8,9,10-hexahydro-benzo[c][1,8]naphthyridin-1-yloxy)-phenyl]-amide] was 0.101 to 1 µM; that for `O=C(Nc1ccc(Nc2ccnc3[nH]c(=O)c4c(c23)CCCC4)c(F)c1)c1ccc(F)cc1C(F)(F)F` [Compound 52, 4-Fluoro-N-[3-fluoro-4-(6-oxo-5,6,7,8,9,10-hexahydrobenzo[c][1,8]naphthyridin-1-ylamino)-phenyl]-2-trifluoromethyl-benzamide] was 0.001 to 0.01 µM; that for `O=C(Nc1ccc(Nc2ccnc3[nH]c(=O)c4c(c23)CCCC4)c(F)c1)c1cccc(F)c1` [Compound 53, 3-Fluoro-N-[3-fluoro-4-(6-oxo-5,6,7,8,9,10-hexahydrobenzo[c][1,8]naphthyridin-1-ylamino)-phenyl]-2-benzamide] was 0.001 to 0.01 µM.
`O=C(Nc1ccc(Nc2ccnc3[nH]c(=O)c4c(c23)CCCC4)cc1F)c1ccc(F)cc1C(F)(F)F` [Compound 54, 4-Fluoro-N-[2-fluoro-4-(6-oxo-5,6,7,8,9,10-hexahydrobenzo[c][1,8]naphthyridin-1-ylamino)-phenyl]-2-trifluoromethyl-benzamide] came in with an IC50 of 0.001 to 0.01 µM.
On the same count and under the same terms, the value for `O=C(Nc1ccc(Nc2ccnc3[nH]c(=O)c4c(c23)CCCC4)c(F)c1)c1ccc(F)c(F)c1` [Compound 55, 3,4-Difluoro-N-[3-fluoro-4-(6-oxo-5,6,7,8,9,10-hexahydrobenzo[c][1,8]naphthyridin-1-ylamino)-phenyl]-1-benzamide] was 0.001 to 0.01 µM; that for `O=C(Nc1ccc(Nc2ccnc3[nH]c(=O)c4c(c23)CCCC4)c(F)c1)c1cccc(F)c1F` [Compound 56, 2,3-Difluoro-N-[3-fluoro-4-(6-oxo-5,6,7,8,9,10-hexahydrobenzo[c][1,8]naphthyridin-1-ylamino)-phenyl]-1-benzamide] was 0.001 to 0.01 µM.

The assay is the same for the next values; noted with them: read-out: Aurora A IC50.
Consider `O=C(Nc1ccc(Nc2ccnc3[nH]c(=O)c4c(c23)CCCC4)cc1)c1cc(Cl)cc(Cl)c1` [Compound 12, 3,5-Dichloro-N-[4-(6-oxo-5,6,7,8,9,10-hexahydrobenzo[c][1,8]naphthyridin-1-ylamino)-phenyl]-1-benzamide], for which the IC50 is 0.011 to 0.1 µM.
Regarding `O=C(Nc1ccc(Nc2ccnc3[nH]c(=O)c4c(c23)CCNC4)cc1)c1ccc(F)cc1C(F)(F)F` [Compound 24, 4-Fluoro-N-[4-(9-oxo-5,6,7,8,9,10-hexahydro-1,7,10-triaza-phenanthren-4-ylamino)-phenyl]-2-trifluoromethyl-benzamide], the IC50 was in the range of 0.011 to 0.1 µM.
On the same count and under the same terms, the value for `O=c1[nH]c2nccc(Cl)c2c2cn(C(c3ccccc3)(c3ccccc3)c3ccccc3)nc12` [Compound 31, 9-Chloro-2-trityl-2H-pyrazolo[3,4-c][1,8]naphthyridin-4(5H)-one] was 0.101 to 1 µM.
Still for that read-out and setting: the value for `O=c1[nH]c2nccc(Oc3ccc4c(c3)OCCN4)c2c2c1CCCC2` [Compound 47, 1-(3,4-Dihydro-2H-benzo[1,4]oxazin-7-yloxy)-7,8,9,10-tetrahydro-5H-benzo[c][1,8]naphthyridin-6-one] was 0.101 to 1 µM; that for `O=C(c1cccn(-c2ccc(F)cc2)c1=O)N1CCOc2cc(Oc3ccnc4[nH]c(=O)c5c(c34)CCCC5)ccc21` [Compound 49, 1-{4-[1-(4-Fluoro-phenyl)-2-oxo-1,2-dihydro-pyridine-3-carbonyl]-3,4-dihydro-2H-benzo[1,4]oxazin-7-yloxy}-7,8,9,10-tetrahydro-5H-benzo[c][1,8]naphthyridin-6-one] was 0.101 to 1 µM; that for `Cc1cccc(-n2nc(C(C)(C)C)cc2NC(=O)Nc2ccc(Oc3ccnc4[nH]c(=O)c5c(c34)CCCC5)cc2)c1` [Compound 51, 1-(5-tert-Butyl-2-m-tolyl-2H-pyrazol-3-yl)-3-[4-(6-oxo-5,6,7,8,9,10-hexahydro-benzo[c][1,8]naphthyridin-1-yloxy)-phenyl]-urea] was 0.101 to 1 µM.

A word on the IC50: it is the concentration that gives 50% inhibition.
